Assay results from patent publication US20210315882A1, “METHODS OF TREATING A PATIENT HAVING PARKINSON'S DISEASE” (Sunovion Pharmaceuticals Inc., priority 2019, published 2021).

Test system: patients with Parkinson's disease and “OFF” episodes
Experiment: Post hoc analysis of Phase 3 study: motor responses to apomorphine sublingual film compared with levodopa
Format: in vivo, human
Description: Patients described in Table 9 were enrolled in a study. At screening, patients attended morning in-office visits in the “OFF” state and received their usual morning dose of levodopa without adjunctive PD medications and were both self- and investigator-assessed for a FULL “ON” response (levodopa challenge; FIG. 9). An “OFF” state was accomplished by withholding levodopa and any other adjunctive PD medications after midnight the night before each morning in-office visit.

N[C@@H](Cc1ccc(O)c(O)c1)C(=O)O [levodopa]
Responder rate (≥30% decrease in MDS-UPDRS III score from predose) (15 minutes postdose): 18% | Responder rate (≥30% decrease in MDS-UPDRS III score from predose) (30 minutes postdose): 50% | time of mean peak response across the time points measured (MDS-UPDRS III score): 95 min | magnitude of observed peak response in MDS-UPDRS III score (mean±SE) (across the time points measured): −27.9±1.20 | change in MDS-UPDRS III score from predose at 15 minutes postdose (mean±SE) (open-label, film at dose giving FULL “ON”, levodopa usual morning dose, n = 109): −6.0±0.72
